{"source": "ChEMBL document CHEMBL1152778", "about": "“Design, synthesis, and biological evaluation of (2R,alphaS)-3,4-dihydro-2-[3-(1,1,2,2-tetrafluoroethoxy)phenyl]-5-[3-(trifluoromethoxy)-phenyl]-alpha-(trifluoromethyl)-1(2H)-quinolineethanol as potent and orally active cholesteryl ester transfer protein inhibitor” (J Med Chem, 2009)", "key": {"[1]": {"tested_on": "Mus musculus", "test": "Increase in HDLC level in normal chow diet-fed human CETP transgenic mouse model at 30 mg/kg, po for 5 days measured after 2 hrs of last dose", "assay_type": "functional"}, "[2]": {"test": "Volume of distribution at steady state in rat at 2 to 3 mg/kg, iv and 10 mg/kg, po", "assay_type": "ADME, organism-based", "details": "in vivo, read-out: Vdss"}, "[3]": {"test": "Half life in rat at 2 to 3 mg/kg, iv and 10 mg/kg, po", "assay_type": "ADME, organism-based", "details": "in vivo"}, "[4]": {"tested_on": "Hamster", "test": "Increase in HDLC level in high-fat fed hamster model at 30 mg/kg, po for 5 days measured after 2 hrs of last dose", "assay_type": "functional, Cricetinae"}, "[5]": {"target": "Phospholipid transfer protein (Homo sapiens) (UniProt P55058)", "sequence (P55058 whole entry)": "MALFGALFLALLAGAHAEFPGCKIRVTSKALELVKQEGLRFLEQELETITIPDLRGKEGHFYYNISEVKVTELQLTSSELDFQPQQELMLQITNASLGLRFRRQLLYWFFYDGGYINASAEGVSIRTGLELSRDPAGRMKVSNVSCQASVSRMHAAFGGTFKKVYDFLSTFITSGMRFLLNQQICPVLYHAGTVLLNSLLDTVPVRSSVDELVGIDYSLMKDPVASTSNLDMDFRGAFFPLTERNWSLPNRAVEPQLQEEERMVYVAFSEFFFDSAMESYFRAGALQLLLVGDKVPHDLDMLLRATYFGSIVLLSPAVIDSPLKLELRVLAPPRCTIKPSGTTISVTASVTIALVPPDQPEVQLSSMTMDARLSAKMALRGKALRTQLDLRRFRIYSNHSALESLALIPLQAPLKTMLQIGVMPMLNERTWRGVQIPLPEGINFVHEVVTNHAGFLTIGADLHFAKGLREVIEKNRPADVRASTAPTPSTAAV", "test": "Inhibition of PLTP activity assessed as phosphatidylcholine transferred from [3H]phosphatidylcholine (dipalmitoyl)-labeled liposomes to HDL by cell based liquid scintillation counter"}, "[6]": {"tested_on": "Hamster", "test": "Increase in HDLC to LDLC ratio in high-fat fed hamster model at 3 to 30 mg/kg, po for 5 days measured after 2 hrs of last dose", "assay_type": "functional, Cricetinae", "details": "dose mg/kg 3-30"}, "[7]": {"test": "Oral bioavailability in dog at 10 mg/kg", "assay_type": "ADME, organism-based, Canis lupus familiaris", "details": "in vivo"}, "[8]": {"test": "Oral bioavailability in rat at 10 mg/kg", "assay_type": "ADME, organism-based", "details": "in vivo"}, "[9]": {"test": "Inhibition of CETP-mediated transfer of cholesteryl ester to LDL/VLDL in hamster plasma by Roar assay", "assay_type": "cell-free", "details": "Cricetinae"}, "[10]": {"tested_on": "Cynomolgus monkey", "test": "Ex vivo inhibition of CETP in po dosed normal chow diet-fed cynomolgus monkey by Roar assay", "assay_type": "functional, organism-based", "details": "Macaca fascicularis"}, "[11]": {"test": "Inhibition of CETP-mediated transfer of cholesteryl ester to LDL/VLDL in monkey plasma by Roar assay", "assay_type": "cell-free", "details": "Macaca mulatta"}, "[12]": {"test": "Clearance in rat at 2 to 3 mg/kg, iv and 10 mg/kg, po", "assay_type": "ADME, organism-based", "details": "in vivo"}, "[13]": {"test": "Inhibition of CETP-mediated transfer of cholesteryl ester to LDL/VLDL in rabbit plasma by Roar assay", "assay_type": "cell-free", "details": "Oryctolagus cuniculus"}, "[14]": {"target": "T1, Phosphatidylcholine-sterol acyltransferase (Homo sapiens) (UniProt P04180)", "T1 sequence (whole entry)": "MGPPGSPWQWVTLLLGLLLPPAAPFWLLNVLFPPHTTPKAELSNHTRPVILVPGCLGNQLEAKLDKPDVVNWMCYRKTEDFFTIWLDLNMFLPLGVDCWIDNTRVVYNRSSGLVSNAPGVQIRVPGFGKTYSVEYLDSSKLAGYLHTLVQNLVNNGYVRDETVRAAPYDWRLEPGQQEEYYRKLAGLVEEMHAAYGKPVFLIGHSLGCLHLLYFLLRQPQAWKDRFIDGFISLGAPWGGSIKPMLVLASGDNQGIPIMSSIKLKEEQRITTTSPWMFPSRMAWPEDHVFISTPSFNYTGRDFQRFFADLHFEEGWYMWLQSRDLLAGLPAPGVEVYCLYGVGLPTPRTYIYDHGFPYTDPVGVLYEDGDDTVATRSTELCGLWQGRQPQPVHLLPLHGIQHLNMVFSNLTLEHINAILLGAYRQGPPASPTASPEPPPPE", "test": "Inhibition of LCAT activity in human plasma assessed as change in cholesteryl ester/free cholesterol ratio by cell based assay"}, "[15]": {"tested_on": "Mus musculus", "test": "Increase in HDLC level in normal chow diet-fed human CETP transgenic mouse model at 10 mg/kg, po for 5 days measured after 2 hrs of last dose", "assay_type": "functional"}, "[16]": {"target": "T2, Endothelial lipase (Homo sapiens) (UniProt Q9Y5X9)", "T2 sequence (whole entry)": "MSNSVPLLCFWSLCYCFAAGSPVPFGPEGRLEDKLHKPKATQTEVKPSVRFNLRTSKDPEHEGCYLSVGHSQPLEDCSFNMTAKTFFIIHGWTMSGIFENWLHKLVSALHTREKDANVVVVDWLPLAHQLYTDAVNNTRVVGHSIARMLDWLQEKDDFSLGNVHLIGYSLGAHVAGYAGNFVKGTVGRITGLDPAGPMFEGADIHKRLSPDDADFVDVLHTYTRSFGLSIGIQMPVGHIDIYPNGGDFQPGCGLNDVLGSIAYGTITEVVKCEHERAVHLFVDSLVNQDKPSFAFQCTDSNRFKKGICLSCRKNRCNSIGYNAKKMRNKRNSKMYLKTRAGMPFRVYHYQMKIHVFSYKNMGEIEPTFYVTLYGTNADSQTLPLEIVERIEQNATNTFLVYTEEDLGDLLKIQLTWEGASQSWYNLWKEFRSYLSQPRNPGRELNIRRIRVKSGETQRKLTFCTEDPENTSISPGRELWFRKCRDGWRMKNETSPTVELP", "test": "Inhibition of endothelial lipase by cell based assay"}, "[17]": {"test": "Oral bioavailability in monkey at 10 mg/kg", "assay_type": "ADME, organism-based, Macaca mulatta", "details": "rhesus monkey, in vivo"}, "[18]": {"tested_on": "Hamster", "test": "Increase in HDLC level in po dosed high-fat fed hamster model", "assay_type": "functional, organism-based", "details": "Cricetinae"}, "[19]": {"tested_on": "Cynomolgus monkey", "test": "Increase in HDLC level in normal chow diet-fed cynomolgus monkey at 3 mg/kg, po for 5 days measured after 10 hrs of last dose", "assay_type": "functional, Macaca fascicularis"}, "[20]": {"target": "T3, Cholesteryl ester transfer protein (Homo sapiens, UniProt P11597)", "T3 sequence (P11597 whole entry)": "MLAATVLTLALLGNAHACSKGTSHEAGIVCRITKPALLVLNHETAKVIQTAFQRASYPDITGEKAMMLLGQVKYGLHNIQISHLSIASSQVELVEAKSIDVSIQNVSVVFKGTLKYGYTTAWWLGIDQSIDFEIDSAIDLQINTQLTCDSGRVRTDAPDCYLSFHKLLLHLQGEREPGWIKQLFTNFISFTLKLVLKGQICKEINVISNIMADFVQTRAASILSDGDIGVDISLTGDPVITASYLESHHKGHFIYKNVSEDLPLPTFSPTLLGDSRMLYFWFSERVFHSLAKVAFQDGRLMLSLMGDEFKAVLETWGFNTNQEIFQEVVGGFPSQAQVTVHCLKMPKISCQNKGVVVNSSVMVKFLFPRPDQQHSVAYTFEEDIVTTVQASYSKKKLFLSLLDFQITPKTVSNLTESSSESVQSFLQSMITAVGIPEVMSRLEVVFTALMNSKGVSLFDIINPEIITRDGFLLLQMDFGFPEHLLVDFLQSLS", "test": "Inhibition of CETP-mediated transfer of [3H]cholesteryl ester from HDL in human plasma after 18 hrs", "assay_type": "cell-free"}}, "note": "Activity calls are given as the source filed them. No cut-off for these calls is given here.", "data": [{"smiles": "O[C@@H](CN1c2cccc(-c3cccc(OC(F)(F)F)c3)c2CC[C@@H]1c1cccc(OC(F)(F)C(F)F)c1)C(F)(F)F", "values": [{"measurement": "Activity", "setting": "[1]", "result": 25, "unit": "%"}, {"measurement": "Vd", "setting": "[2]", "result": 0.36, "unit": "L/kg"}, {"measurement": "half-life", "setting": "[3]", "result": 28, "unit": "h"}, {"measurement": "Activity", "setting": "[4]", "result": 40, "unit": "%"}, {"measurement": "Activity", "setting": "[5]", "result": "inactive"}, {"measurement": "Activity", "setting": "[6]", "result": 4.6}, {"measurement": "bioavailability", "setting": "[7]", "result": 5, "unit": "%"}, {"measurement": "bioavailability", "setting": "[8]", "result": 31, "unit": "%"}, {"measurement": "IC50", "setting": "[9]", "result": 100, "unit": "nM"}, {"measurement": "Activity", "setting": "[10]", "result": "Dose-dependent effect"}, {"measurement": "IC50", "setting": "[11]", "result": 1400, "unit": "nM"}, {"measurement": "clearance", "setting": "[12]", "result": 1.8, "unit": "mL/min/kg"}, {"measurement": "IC50", "setting": "[13]", "result": 3500, "unit": "nM"}, {"measurement": "Activity", "setting": "[14]", "result": "inactive"}, {"measurement": "Activity", "setting": "[15]", "result": 36, "unit": "%"}, {"measurement": "Activity", "setting": "[16]", "result": "inactive"}, {"measurement": "bioavailability", "setting": "[17]", "result": 27, "unit": "%"}, {"measurement": "Activity", "setting": "[18]", "result": "Dose-dependent effect"}, {"measurement": "Activity", "setting": "[19]", "result": 4, "unit": "%"}, {"measurement": "IC50", "setting": "[20]", "result": 200, "unit": "nM"}]}]}
